Measured values published in US7141560B2, “Alanine 2,6-dialkoxyphenyl ester derivatives as hypnotics” (Akzo Nobel N.V., priority 2001, dated 2006).

System: mice
Assay: Hypnotic activity: loss of righting reflex after intravenous injection in mice
Type: in vivo
Settings: intravenous injection over 10 seconds, dose causing loss of righting reflex for minimum 30 seconds in 50% of treated mice
Protocol: The hypnotic potency of the alanine 2,6-dialkoxyphenyl ester derivatives of the invention was determined upon their intravenous administration in mice. The dose required to cause a loss of righting reflex for a minimum period of 30 seconds in 50% of treated mice after intravenous injection over 10 seconds was determined. This dose is termed the HD50 (hypnotic dose50) and is expressed in μmol.kg^−1. These in vivo experiments were carried out as described in detail by Anderson et al., J. Med. Chem. 1997, 40, 1668–1681.

SMILES | HD50 (hypnotic dose50) [µmol/kg] | ED50 (Mus musculus, read-out: HD50 (hypnotic dose50)) [µmol/kg]
COC(=O)CC(C(=O)Oc1c(OC)cc(C)cc1OC)N1CCCCCC1 (centres unmarked) [Example 30b, Butanedioic, 2-(1-hexahydroazepinyl)-, 1-(2,6-dimethoxy-4-methyl-phenyl)ester, 4-methyl ester] | 26 | –
CCN(CC)C(=O)CC(C(=O)Oc1c(OC)cc(C)cc1OC)N1CCOCC1 (centres unmarked) [Example 32a, Butanedioic, 4-(diethylamino)-4-oxo-, 2-(4-morpholinyl)-, 1-(2,6-dimethoxy4-methylphenyl)ester] | 38 | –
COc1cc(C)cc(OC)c1OC(=O)C(CC(=O)N1CCCCC1)N1CCCCC1 (centres unmarked) [Example 34a, Butanedioic, 4-(1-piperidinyl)-4-oxo-, 2-(1-piperidinyl)-, 1-(2,6-dimethoxy-4-methylphenyl)ester] | 38 | –
COc1cccc(OC)c1OC(=O)C(CC(=O)N1CCCCC1)N1CCCCC1 (centres unmarked) [Example 34b, Butanedioic, 4-(1-piperidinyl)-4-oxo-, 2-(1-piperidinyl)-1-(2,6-dimethoxyphenyl)ester] | 39 | –
COc1cccc(OC)c1OC(=O)C(CC(=O)N1CCCC1)N1CCCCCC1 (centres unmarked) [Example 36, Butanedioic, 2-(1-hexahydroazepinyl)-4-oxo-4-(1-pyrrolidinyl)-, 1-(2,6-dimethoxyphenyl)ester] | 34 | –
COc1cc(C)cc(OC)c1OC(=O)C(CCSC)N1CCOCC1 (centres unmarked) [Example 39a, Butanoic acid, 4-(methylthio)-2-(4-morpholinyl)-, 1-(2,6-dimethoxy-4-methylphenyl)ester] | 35 | –
COc1cc(C)cc(OC)c1OC(=O)C(CCSC)N1CCCC1 (centres unmarked) [Example 39b, Butanoic acid, 4-(methylthio)-2-(1-pyrrolidinyl)-, 1-(2,6-dimethoxy-4-methylphenyl)ester] | 31 | –
COCCN(CCOC)C(CCSC)C(=O)Oc1c(OC)cc(C)cc1OC (centres unmarked) [Example 39c, Butanoic acid, 2-[N-bis(2-methoxyethyl)amino]-4-(methylthio), 1-(2,6-dimethoxy-4-methylphenyl)ester] | 23 | –
COc1cccc(OC)c1OC(=O)C(CCSC)N1CCCCC1 (centres unmarked) [Example 40a, Butanoic acid, 4-(methylthio)-2-(1-piperidinyl)-, 1-(2,6-dimethoxyphenyl)ester] | <26 | –
COc1cccc(OC)c1OC(=O)C(CCSC)N1CCCC1 (centres unmarked) [Example 40b, Butanoic acid, 4-(methylthio)-2-(1-pyrrolidinyl)-, 1-(2,6-dimethoxyphenyl)ester] | 40 | –
COc1cccc(OC)c1OC(=O)C(CCSC)N1CCCCCC1 (centres unmarked) [Example 40c, Butanoic acid, 2-(1-hexahydroazepinyl)-4-(methylthio), 1-(2,6-dimethoxyphenyl)ester] | 18 | –
COc1cccc(OC)c1OC(=O)C(CCSC)N1CCCCCCC1 (centres unmarked) [Example 40d, Butanoic acid, 2-(1-hexahydroazocinyl)-4-(methylthio), 1-(2,6-dimethoxyphenyl)ester] | 35 | –
COc1cc(C)cc(OC)c1OC(=O)C(CCS(C)(=O)=O)N1CC=CCC1 (centres unmarked) [Example 43, Butanoic acid, 4-(methylsulphonyl)-2-(1-[1,2,3,6-tetrahydropyridinyl])-, 1-(2,6-dimethoxy-4-methylphenyl)ester] | 39 | –
COC(=O)CCC(C(=O)Oc1c(OC)cccc1OC)N1CCCCC1.Cl (centres unmarked) [Example 47a, Pentanedioic acid, 2-(1-piperidinyl)-, 1-(2,6-dimethoxyphenyl)ester, 5-methyl ester hydrochloride (1:1) salt] | 50 | –
COC(=O)CCC(C(=O)Oc1c(OC)cccc1OC)N1CCCCCC1.Cl (centres unmarked) [Example 47b, Pentanedioic acid, 2-(1-hexahydroazepinyl)-, 1-(2,6-dimethoxyphenyl)ester, 5-methyl ester hydrochloride (1:1) salt] | 36 | –
COC(=O)CCC(C(=O)Oc1c(OC)cccc1OC)N1CCSCC1.Cl (centres unmarked) [Example 47c, Pentanedioic acid, 2-(N-thiomorpholinyl)-, 1-(2,6-dimethoxyphenyl)ester, 5-methyl ester hydrochloride (1:1) salt] | 44 | –
COCCN(CCOC)C(CCC(=O)OC)C(=O)Oc1c(OC)cccc1OC.Cl (centres unmarked) [Example 48, Pentanedioic acid, 2-[bis-(2-methoxyethyl)amino]-, 1-(2,6-dimethoxyphenyl)ester, 5-methyl ester hydrochloride (1:1) salt] | 37 | –
COC(=O)CCC(C(=O)Oc1c(OC)cc(C)cc1OC)N1CCCC1.Cl (centres unmarked) [Example 49a, Pentanedioic acid, 2-(1-pyrrolidinyl)-, 1-(2,6-dimethoxy4-methylphenyl)-ester, 5-methyl ester hydrochloride (1:1) salt] | 50 | –
COC(=O)CCC(C(=O)Oc1c(OC)cc(C)cc1OC)N1CCCCC1.Cl (centres unmarked) [Example 49b, Pentanedioic acid, 2-(1-piperidinyl)-, 1-(2,6-dimethoxy-4-methylphenyl)ester, 5-methyl ester hydrochloride (1:1) salt] | 47 | –
CCOCCN(CCOCC)C(CCC(=O)OC)C(=O)Oc1c(OC)cc(C)cc1OC.Cl (centres unmarked) [Example 50] | 40 | –
COCCC(C(=O)Oc1c(OC)cccc1OC)N1CCCOCC1 (centres unmarked) [Example 51a, (ξ)-2-[4-(Hexahydro-1-oxazepinyl)]-4-methoxybutyric acid,2,6-dimethoxyphenyl ester] | 15 | –
COCCC(C(=O)Oc1c(OC)cccc1OC)N1CCCOCC1 (centres unmarked) [Example 51b, (ξ)-2-[4-(Hexahydro-1-oxazepinyl)]-4-methoxybutyric acid,2,6-dimethoxyphenyl ester] | 30 | –
COCCN(CCOC)C(COC)C(=O)Oc1c(OC)cc(C)cc1OC (centres unmarked) [Example 51c, (ξ)-2-[N-Bis(2-methoxyethyl)amino]-3-methoxypropionic acid, 2,6-dimethoxy-4-methylphenyl ester] | 24 | –
COCCN(CCOC)C(COC)C(=O)Oc1c(OC)cc(C)cc1OC (centres unmarked) [Example 51d, (ξ)-2-[N-Bis(2-methoxyethyl)amino]-3-methoxypropionic acid, 2,6-dimethoxy-4-methylphenyl ester] | 36 | –
COC[C@H](C(=O)Oc1c(OC)cccc1OC)N1CCCOCC1 [Example 52a, 2R-[4-(Hexahydro-1-oxazepinyl)]-3-methoxypropionic acid, 2,6-dimethoxyphenyl ester] | – | 16
COC[C@@H](C(=O)Oc1c(OC)cccc1OC)N1CCCOCC1 [Example 52b, 2S-[4-(Hexahyro-1-oxazepinyl)]-3-methoxypropionic acid ,2,6-dimethoxyphenyl ester] | 40 | –
